Results published in patent publication US12448400B2, “KRAS G12D modulating compounds” (priority 2023, dated 2025).

Key:
GP2D (KRAS G12D) cells = assay: 2D cell viability assay (CellTiter-Glo); assay type: cell-based; conditions: 96 h; GP2D cells, 4 days, CellTiter-Glo luminescence; read-out: G12D 2D EC50
Procedure, shortened: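 Viability was read by CellTiter-Glo after 4 days at 37 °C of 2D culture of KRAS G12D GP2D cells (1000/well, RPMI, 10% FBS) on pre-spotted threefold compound dilutions. EC50 was fitted with a sigmoidal dose-response model as the point of half-maximal luminescence loss.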

[1] = Mouse oral cassette pharmacokinetics; assay type: in vivo, male CD-1 mice; conditions: male, CD-1, mouse, in vivo, po, 30 mg/kg
Procedure, shortened: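 Male CD-1 mice (n=4) dosed orally by gavage at 30 mg-eq./kg per compound as cassettes of 1–3 compounds in 10 w/v % Captisol/50 mM citrate. Plasma sampled 0.5–24 h post dose, analysed by LC-MS/MS; Cmax and AUClast from non-compartmental analysis.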

[2] = Rat oral pharmacokinetics; parameters: species or system Male Sprague Dawley rats; conditions: male, Sprague Dawley, in vivo
Protocol: Rat Oral Pharmacokinetics
(§1) Test compounds were formulated in solution formulations (10 w/v % Sulfobutylether-p-cyclodextrin; 90% w/v % 50 mM Citrate Buffer) and administered orally to a group of three Male Sprague Dawley rats. The animals were fasted overnight prior to dose administration and up to four hours after dosing. The test articles were administrated by oral gavage at a dose volume of 5 mL-eq/kg.
Blood samples were collected at predose and 0.25, 0.5, 1, 2, 4, 6, 8, 12, 24, 48 and 72 hours post dose into K2EDTA tubes and stored on wet ice until processed. Whole blood was processed to plasma by centrifugation (3500 rpm for 10 minutes at 5° C.) within 30 minutes of collection. Plasma samples were placed in Micronic 96 well tubes and stored at −80° C. until transferred. Plasma concentration of the test compounds was determined by LC-MS/MS. Pharmacokinetic parameters were estimated using non-compartment model analysis. The maximum observed concentration (Cmax) and area under the curve from time of dosing to last measured concentration (AUClast) were calculated and reported.

[3] = Dog oral pharmacokinetics; parameters: species or system Male Beagle dogs; conditions: male, Beagle, in vivo, 5 mg/kg
Protocol: Dog Oral Pharmacokinetics
as §1, with “(10%” for “(10”, “orally at 5 or 10 mg-eq./kg” for “orally”, “Beagle dogs.” for “Sprague Dawley rats.”, “ml/kg.” for “mL-eq/kg.”
Blood samples were collected into K2EDTA tubes at predose and 0.25, 0.5, 1, 2, 4, 6, 8, 12, 24 hours post dose, and once daily collection post 24 hours up to 168 hours. Whole blood were stored on wet ice and processed to plasma by centrifugation (3500 rpm for 10 minutes at 5° C.) within 1 hour of collection. Plasma samples were placed in Micronic 96 well tubes and stored at −80° C. until transferred. Plasma concentration of the test compounds was determined by LC-MS/MS. Pharmacokinetic parameters were estimated using non-compartment model analysis. The maximum observed concentration (Cmax) and area under the curve from time of dosing to last measured concentration (AUClast) were calculated and reported.

| SMILES | EC50 (GP2D (KRAS G12D) cells) [pM] | Mouse Parent AUC (nM * h) [1] | Rat Parent % F ([2]; 15 mg/kg) [%] | Rat Parent AUC ([2]; 15 mg/kg) [µM·h] | Dog Parent % F [3] [%] | Dog Parent AUC (nM * h) [3] | Rat Parent % F ([2]; 7.5 mg/kg) [%] | Rat Parent AUC ([2]; 7.5 mg/kg) [µM·h] | Dog Parent AUC [3] [µM·h] |
| --- | --- | --- | --- | --- | --- | --- | --- | --- | --- |
| C#Cc1c(F)ccc2cc(N)cc(-c3nc4c5c(nc(OC[C@@]67CCCN6C[C@H](F)C7)nc5c3F)N3C[C@H]5CC[C@@H]([C@H]3CCC4)N5Cc3oc(=O)oc3CC)c12 [Example 34, 4-(((6aR,7S,10R)-2-(3-amino-8-ethynyl-7-fluoronaphthalen-1-yl)-1-fluoro-13-(((2R,7aS)-2-fluorotetrahydro-1H-pyrrolizin-7a(5H)-yl)methoxy)-5,6,6a,7,8,9,10,11-octahydro-4H-3,11a,12,14,15-pentaaza-7,10-methanocyclohepta[4,5]cycloocta[1,2,3-de]naphthalen-15-yl)methyl)-5-ethyl-1,3-dioxol-2-one] | 400 | 1,300 nM * h | 5 | 0.27 | 12 | 1,200 nM * h | – | – | – |
| C#Cc1c(F)ccc2cc(O)cc(-c3nc4c5c(nc(OC[C@@]67CCCN6[C@H](COC(C(F)(F)F)(C(F)(F)F)C(F)(F)F)CC7)nc5c3F)N3C[C@H]5CC[C@@H]([C@H]3CCC4)N5Cc3oc(=O)oc3C)c12 [Example 38, 4-(((6aR,7S,10R)-2-(8-ethynyl-7-fluoro-3-hydroxynaphthalen-1-yl)-1-fluoro-13-(((3S,7aS)-3-(((1,1,1,3,3,3-hexafluoro-2-(trifluoromethyl)propan-2-yl)oxy)methyl)tetrahydro-1H-pyrrolizin-7a(5H)-yl)methoxy)-5,6,6a,7,8,9,10,11-octahydro-4H-3,11a,12,14,15-pentaaza-7,10-methanocyclohepta[4,5]cycloocta[1,2,3-de]naphthalen-15-yl)methyl)-5-methyl-1,3-dioxol-2-one] | 250 | 2,100 nM * h | – | – | 4.2 | – | 3 | 0.28 | 0.21 |
